From paper PMC3561363, “A Novel Retro-Inverso Peptide Inhibitor Reduces Amyloid Deposition, Oxidation and Inflammation and Stimulates Neurogenesis in the APPswe/PS1ΔE9 Mouse Model of Alzheimer’s Disease” (PLoS ONE, 2013)
Where a SMILES comes first, the peptide text is derived from it.

How the values were obtained:
Aβ42 fibrils = Aβ42 fibrils (Homo sapiens, UniProt P05067); assay: Surface plasmon resonance (SPR), immobilized Aβ42 fibrils; format: binding
Experimental: These experiments were conducted using a Sensi Q semi-automatic SPR machine (ICx Nomadics). This apparatus has two parallel flow cells; one was used to immobilize Aβ42 fibrils while the other was used as “reference” (empty surface). A COOH5 sensor chip (ICx Nomadics) was employed for this purpose and the peptide was immobilized by amine coupling chemistry. Briefly, after surface activation, the peptide preparation was diluted to 10 µM in acetate buffer (pH 4.0) and then injected for 5 min at a flow rate of 30 µl/min. Any remaining activated groups were blocked with ethanolamine (pH 8.0). The final immobilization level was ∼5,000 resonance units (1 RU = 1 pg of protein/mm^2). The empty “reference” surface was prepared in parallel using the same immobilization procedure, but without addition of the peptide. Sensorgrams were then obtained via injection of three different concentrations of RI-OR2–TAT (1, 3 and 6 µM), as well as the vehicle (PBS with 0.005% Tween 20), over the immobilized ligand or control surface, in parallel. These SPR data can be interpreted to provide an estimate for the affinity of binding of the inhibitors to Aβ fibrils, [28]. Data for the three concentrations of RI-OR2-TAT were fitted separately by Qdat software [ICx Nomadics] using the 1∶1 pseudo-first order Langmuir interaction model. Eq. 1 was used to fit the association while the dissociation was fitted by eq. 2. The rate constants (kon and koff) were used to calculate kd as reported in eq. 3. [drawing 1] (1) [drawing 2] (2) [drawing 3] (3) Where Rt is binding response at time t; C is the molar concentration of the analyte at the interaction surface at time t; Rmax is the maximal binding response; R0 is the binding response at time t0 (i. e. time at the onset of the dissociation phase); kon is the association rate constant; koff is the dissociation rate constant. Values were expressed as a mean ± SD.

[1] = tested on: activated microglia (Iba1) in APP/PS1 mouse cortex; assay: Activated microglia, Iba1 immunostaining, cortex; format: in vivo; conditions: 100 nmol/kg i.p. once daily, 21 days, 10 months old APP/PS1 mice, vs saline, p<0.0001, 4 animals per group
Experimental: (§1) APPswe/PS1ΔE9 mice with a C57Bl/6 background (APP/PS1 mice) were obtained from the Jackson lab (http://research.jax.org/repository/alzheimers.html). […] To look at the effects of RI-OR2-TAT on mouse brain pathology (experiment 2), 8 female 10-months-old APP/PS1 mice were used. The animals were housed in single cages in a temperature controlled holding room (21.5°C±1) with 12∶12 h light and dark cycle. Food and water was available ad libitum.
(§2) For experiment 2, 4 animals were injected intraperitonially (i.p.) with 0.9% NaCl (vehicle control) and the other 4 with RI-OR2-TAT (100 nmol/kg in 0.9% NaCl) once daily, for 21 days. […]
(§3) For experiment 2 (effects on brain pathology), sections were examined for activated microglia (using anti-Iba-1 antibody), oxidative stress (anti-8-oxo-guanine antibody), immature neurons (anti-doublecourtin antibody) or total plaque load (anti-Aβ antibody). […] Oxidative stress was assessed by denaturing DNA in each section using 2N HCl and the sections were then stained for 8-oxo guanine (1∶200 dilution, MAB3560, Millipore). Young immature neurons were detected by immunostaining for doublecortin (1∶200 dilution, sc-66911, Santa Cruz Biotechnology). Total plaque load was quantified by immunostaining for β-amyloid (1∶200 dilution, Invitrogen, 71–5800).
(§4) All sections were visualized using an Axio Scope 1 fluorescence microscope (Zeiss, Germany). […]

[2] = tested on: β-amyloid plaques in APP/PS1 mouse cortex; assay: Amyloid plaque load, β-amyloid immunostaining, cortex; format: in vivo; conditions: 100 nmol/kg i.p. once daily, 21 days, 10 months old APP/PS1 mice, vs saline, p<0.0001, N = 4 per group
Experimental: as §1, §2, §3, §4

[3] = tested on: doublecortin-expressing neurons in APP/PS1 mouse dentate gyrus; assay: Young immature neurons, doublecortin immunostaining, dentate region; format: in vivo; conditions: 100 nmol/kg i.p. once daily, 21 days, 10 months old APP/PS1 mice, vs saline, p<0.0001, 4 animals per group
Aβ42 = assay: Thioflavin T (ThT) assay for Aβ fibrils; format: biochemical
Experimental: This method was the same as that published previously. Briefly, 60 µl samples of solutions containing Aβ42 (25 µM), ThT (15 µM) and between 0 and 125 µM RI-OR2 or RI-OR2–TAT, in 10 mM phosphate buffered saline (PBS), pH 7.4, were incubated in sealed, black, clear-bottomed 384-well plates (Corning). ThT fluorescence was monitored every 10 mins (λex = 442 nm, λem = 483 nm) for 48 h at 30°C in a Biotek Synergy 2 plate reader.

Sequence of Aβ42 fibrils (P05067 672-713 limits assumed): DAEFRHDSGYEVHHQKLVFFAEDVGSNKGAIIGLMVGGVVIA

SMILES: CC(=O)N[C@H](CCCNC(=N)N)C(=O)NCC(=O)N[C@H](Cc1ccccc1)C(=O)N[C@H](Cc1ccccc1)C(=O)N[C@@H](C(=O)N[C@H](CC(C)C)C(=O)N[C@H](CCCCN)C(=O)NCC(=O)N[C@H](CCCNC(=N)N)C(=O)N[C@H](CCCNC(=N)N)C(=O)N[C@H](CCCNC(=N)N)C(=O)N[C@H](CCCNC(=N)N)C(=O)N[C@H](CCC(N)=O)C(=O)N[C@H](CCCNC(=N)N)C(=O)N[C@H](CCCNC(=N)N)C(=O)N[C@H](CCCCN)C(=O)N[C@H](CCCCN)C(=O)N[C@H](CCCNC(=N)N)C(=O)NCC(=O)N[C@H](Cc1ccc(O)cc1)C(N)=O)C(C)C [RI-OR2-TAT, Ac-rGffvlkGrrrrqrrkkrGy-NH2] (HELM PEPTIDE1{[ac].[dR].G.[dF].[dF].[dV].[dL].[dK].G.[dR].[dR].[dR].[dR].[dQ].[dR].[dR].[dK].[dK].[dR].G.[dY].[am]}$$$$V2.0)
- fold lower kd than previously reported for RI-OR2 (Aβ42 fibrils; Aβ42 fibrils, SPR, RI-OR2 value from ref 16): ~100 -fold
- koff (Aβ42 fibrils; SPR, 1, 3 and 6 µM, 1∶1 Langmuir model, PBS with 0.005% Tween 20, mean ± SD, read-out: koff (dissociation rate constant)): 0.00037 ± 0.00015 s⁻¹
- kon (Aβ42 fibrils; SPR, 1, 3 and 6 µM, 1∶1 Langmuir model, PBS with 0.005% Tween 20, mean ± SD, read-out: kon (association rate constant)): 3680 ± 615 M⁻¹ s⁻¹
- Kd (Aβ42 fibrils; SPR, Aβ42 fibrils, from koff and kon, 1∶1 Langmuir model, three concentrations fitted separately, read-out: kd (calculated apparent affinity)): 58 to 125 nM
- reduction of number of activated microglia [1]: 44%
- reduction of amyloid plaque load [2]: 32%
- increase in mean number of young doublecortin-expressing neurons [3]: 210%
- ThT inhibition compared with RI-OR2 (Aβ42; 48 h, 25 µM Aβ42, PBS pH 7.4, same molar ratios): slightly better inhibitor than RI-OR2
- ThT fluorescence after incubation of Aβ42 with inhibitor (Aβ42; 48 h, 30°C, 25 µM Aβ42, 15 µM ThT, 10 mM PBS pH 7.4, molar ratios 1∶1, 1∶2, 1∶4 and 1∶10 (inhibitor:Aβ42)): lower fluorescence
- inhibition of Aβ42 aggregation (Fig. 1) (Aβ42; ThT, 25 µM Aβ42, 48 h, figure title): inhibit the aggregation of Aβ42
